Experiments:
Plasmopara viticola [1] = assay: Direct protectant activity against vine downy mildew (Pvp); assay type: in vivo; design: Pvp: direct protectant activity against vine downy mildew: scale not given here; conditions: foliar spray, 1 kg/ha; activity grade 1 or 2, not defined
Description: (a) Direct Protectant Activity Against Vine Downy Mildew (Plasmopara viticola; Pvp)
The test is a direct protectant one, using a foliar spray. The lower surfaces of leaves of whole vine plants (cv Cabernet Sauvignon) are sprayed with a solution of active material in 1:1 v/v water/acetone containing 0.04% w "Triton X-155" (trade mark) (octylphenol polyoxyethylene surfactant), at a dosage of 1 kilogram of active material per hectare using a track sprayer which delivers 620 liters/ha, and after a subsequent 24 hours under normal glasshouse conditions the lower surfaces of the leaves are inoculated by spraying with an aqueous solution containing 10^4 zoosporangia/ml. The inoculated plants are kept for 24 hours in a high humidity compartment, 5 days under normal glasshouse conditions and then returned for a further 24 hours to high humidity. Assessment is based on the percentage of leaf area covered by sporulation compared with that on control leaves.

[2] = system: Pseudocercosporella herpotrichoides; assay: In vitro activity against wheat eyespot (Ph); assay type: cell-based; design: Ph: activity against wheat eyespot: scale not given here; conditions: for Ph: activity against wheat eyespot: in vitro, 100 ppm in agar, 11 days, activity grade 1 or 2, not defined
Experimental: (c) Activity Against Wheat Eyespot (Pseudocercosporella herpotrichoides; Ph)
The test is an in vitro one. Samples are prepared wherein 0.7 mls solution containing 2 mg active material dissolved in acetone is evenly dispersed in 20 ml molten half-strength potato dextrose agar (formed by dissolving 2 g potato extract, 10 g dextrose and 7.5 g agar in 1 liter of water and sterilising for 15 minutes and 121° C.) and the resulting 20 ml portions are allowed to set in 9 cm petri dishes. The concentration of active material in the resulting samples is 100 ppm. Upon setting, two plugs of 5 mm diameter taken from the advancing edge of a stock plate of a 3 to 4 week old culture of P.herpotrichoides on full strength potato dextrose agar, incubated at 20°-22° C. in darkness, are placed, equally spaced on the surface of each sample, mycelial side uppermost. The samples are incubated for 11 days at 20°-22° C. in darkness before assessment. Diametric growth is measured with the width of the plug subtracted and results compared with growth on a sample wherein 0.7 ml acetone containing no active material is dispersed in 20 ml half-strength potato agar.

Leptosphaeria nodorum = assay: Direct antisporulant activity against wheat leafspot (Ln); assay type: in vivo; design: scale not given here; conditions: foliar spray, 1 kg/ha; activity grade 1 or 2, not defined
Experimental: (e) Activity Against Wheat Leafspot (Leptosphaeria nodorum; Ln) The test is a direct antisporulant one, using a foliar spray. Leaves of wheat plants ([…]), at the single leaf stage, are inoculated by spraying with an aqueous suspension containing 8×10^5 spores/mi. The inoculated plants are kept for 24 hours in a high humidity compartment prior to treatment. […] After drying, the plants are kept for 5 days under normal glasshouse conditions, followed by assessment. Assessment is based on the percentage of leaf area covered by sporulation compared with that on leaves of control plants.

[3] = system: Erysiphe graminis f.sp. hordei; assay: Direct antisporulant activity against barley powdery mildew (Eg); assay type: in vivo; design: scale not given here; conditions: foliar spray, 1 kg/ha; activity grade 1 or 2, not defined
Description: (f) Activity Against Barley Powdery Mildew (Erysiphe graminis f.sp. hordei; Eg) The test is a direct antisporulant one, using a foliar spray. Leaves of barley seedlings, cultivar Golden Promise, are inoculated by dusting with mildew conidia one day prior to treatment with the test compound. The inoculated plants are kept overnight at glasshouse ambient temperature and humidity prior to treatment. […] After drying, plants are returned to a compartment at ambient temperature and humidity for up to 7 days, followed by assessment. Assessment is based on the percentage of leaf area covered by sporulation compared with that on leaves of control plants.

Alternaria Solani = assay: Direct protectant activity against tomato early blight (As); assay type: in vivo; design: As: activity against tomato early blight: scale not given here; conditions: foliar spray as under (a), 8 days; activity grade 1 or 2, not defined; note: dose 1000 g/ha
Experimental: (g) Activity Against Tomato Early Blight (Alternaria Solani; As). The test is a direct protectant one using a foliar spray. The upper surfaces of leaves of young tomato plants are sprayed with a solution of active material as described in (a) above. After 24 hours under normal glasshouse conditions, the upper surfaces of the leaves are inoculated by spraying with an aqueous suspension containing 10^4 spores/ml. The inoculated plants are kept for 72 hours in a high humidity compartment and are then removed to lower humidity (50-70% relative humidity). Assessment is made 8 days after inoculation.

Pyricularia oryzae = assay type: in vivo; conditions: foliar spray, 1 kg/ha; activity grade 1 or 2, not defined
bacteria = conditions: prior art; cited from earlier work
fungi = conditions: prior art; cited from earlier work
Podosphaera leucotricha = assay: Direct antisporulant activity against apple powdery mildew (Pl); assay type: in vivo; conditions: foliar spray, 1 kg/ha; activity grade 1 or 2, not defined
Description: (h) Activity Against Apple Powdery Mildew (Podosphaera leucotricha; Pl) The test is a direct anti-sporulant one using a foliar spray. The upper surfaces of leaves of whole seedlings are inoculated by spraying with an aqueous suspension containing 10^5 conidia/ml 2 days prior to treatment with the test compound. The inoculated plants are immediately dried and kept at glasshouse ambient temperatures and humidity prior to treatment. […] After drying the plants are returned to a compartment at ambient temperature and humidity for up to 9 days, followed by assessment. Assessment is based on the percentage of the leaf area covered by sporulation compared with that on leaves of control plants.

Fusarium culmorum = assay: Activity against seedling wheat blight, soil drench (Fs); assay type: in vivo; design: scale not given here; conditions: 10 kg/ha, 21 days, activity grade 1 or 2, not defined
Experimental: (d) Activity Against Seedling Wheat Blight (Fusarium culmorum; Fs)
The test is an anti-sporulant one using a soil drench. Surface sterilised wheat seeds (var Waggoner) are inoculated by soaking in an aqueous suspension containing 7×10^5 spores/ml (60 mg seed per 80 ml suspension) at 22° C. for 6 hours. The seeds are then sown in pots (5 per pot) in sand at a depth of 1 cm. 1 day after inoculation and planting the active material is applied at a rate of 10 kg/ha by pouring on a soil drench (concentration 0.36 g/l active material in 12% v/v acetone/water) evenly over the sand. The pots are then transferred to a glasshouse, kept at 25° C. and watered sparingly. 21 days after inoculation the resulting seedlings are removed from the pots and their roots are gently washed. Visual assessment is made based on lesion development on stem base and upper roots in comparison with control seedlings.

Plasmopara viticola [4] = assay: Translaminar protectant test, vine downy mildew (Pvt); assay type: in vivo; conditions: secondary screening
Description: The fungicidal activity of certain of the compounds was investigated further, in secondary screening.

Plasmopara viticola [5] = assay: Antisporulant activity against vine downy mildew (Pva); assay type: in vivo; conditions: foliar spray, 1 kg/ha; activity grade 1 or 2, not defined
Experimental: (j) Antisporulant Activity Against Vine Downy Mildew (Plasmopara viticola; Pva)
The test is a direct antisporulant one using a foliar spray. The lower surfaces of leaves of whole vine plants (cv Cabernet Sauvignon) are inoculated by spraying with an aqueous suspension containing 10^4 zoosporangia/ml 2 days prior to treatment with the test compound. The inoculated plants are kept for 24 hours in a high humidity compartment, and then 24 hours at glasshouse ambient temperature and humidity. When the plants are dry, infected leaves are sprayed on their lower surfaces with a solution of active material in 1:1 water/acetone containing 0.04% w/w "Triton X-155" (trade mark) (an octylphenol polyethoxylate surfactant). The spraying is carried out with a moving track sprayer with delivers 620 liter/ha, and the concentration of active material is calculated to give an application rate of 1 kg/ha. After spraying, the plants are returned to normal glasshouse conditions for 96 hours and are then transferred to the high humidity compartment for 24 hours to induce sporulation, prior to assessment. Assessment is visual and is based on the percentage of the leaf area covered by sporulation compared with that on control leaves.

Botrytis cinerea = assay: Direct protectant activity against vine grey mould (Bcp); assay type: in vivo; conditions: foliar spray, 1 kg/ha; activity grade 1 or 2, not defined
Description: (b) Direct Protectant Activity Against Vine Grey Mould (Botrytis cinerea; Bcp) The test is a direct protectant one using a foliar spray and is effected as described under (a), with the difference that the leaves are inoculated by spraying with an aqueous solution containing 10^5 conidia/ml.

Structure (SMILES): COC(=O)N=[N+]([O-])c1ccc(C)c2c1OC(C)CC2 (stereo not shown) [Example 46]
- Pvp: direct protectant activity against vine downy mildew (Plasmopara viticola [1]): 2
- Ph: activity against wheat eyespot [2]: 2
- Ln: activity against wheat leafspot (Leptosphaeria nodorum): 2
- Eg: activity against barley powdery mildew [3]: 2
- As: activity against tomato early blight (Alternaria Solani): 2
- Other: Po, activity against rice leaf blast (Pyricularia oryzae): 2

Structure (SMILES): COC(=O)c1ccc([N+]([O-])=NC#N)cc1 [calvatic acid methyl ester]
- antibacterial activity (bacteria): antibacterial and antifungal activity
- antifungal activity (fungi): antibacterial and antifungal activity

Structure (SMILES): N#CN=[N+]([O-])c1ccccc1C(=O)O [2-(cyano-N,N,O-azoxy)benzoic acid]
- antibacterial activity (bacteria): low activity against bacteria
- antifungal activity (fungi): no relevant activity against the tested fungi

Structure (SMILES): COCC1Cc2c(Cl)c(C)cc(N=NC(=O)OC)c2O1 (stereo not shown) [Example 36]
- Pvp: direct protectant activity against vine downy mildew (Plasmopara viticola [1]): 1
- Ph: activity against wheat eyespot [2]: 2
- Eg: activity against barley powdery mildew [3]: 2
- Other: Pl, activity against apple powdery mildew (Podosphaera leucotricha): 2

Structure (SMILES): C[S+](C)[O-].N#CN=[N+]([O-])c1ccc(C(=O)O)cc1 [4-carboxyphenylazoxycyanide-dimethylsulphoxide]
- antibacterial activity (bacteria): Antibacterial and antifungal properties
- antifungal activity (fungi): Antibacterial and antifungal properties

Structure (SMILES): C=CCOC(=O)N=Nc1ccc(C)c2c1OC(C)CC2 (stereo not shown) [Example 40]
- Ln: activity against wheat leafspot (Leptosphaeria nodorum): 1
- Other: Pl, activity against apple powdery mildew (Podosphaera leucotricha): 2

Structure (SMILES): COC(=O)N=Nc1cccc2c1OC(C)(C)C2 [Example 31]
- Ph: activity against wheat eyespot [2]: 1
- Fs: activity against seedling wheat blight (Fusarium culmorum): 1
- Eg: activity against barley powdery mildew [3]: 1
- Other: Pl, activity against apple powdery mildew (Podosphaera leucotricha): 1

Structure (SMILES): CCC1Cc2c(C)ccc(N=NC(=O)OC)c2O1 (stereo not shown) [Example 37]
- Pvp: direct protectant activity against vine downy mildew (Plasmopara viticola [1]): 1
- Ph: activity against wheat eyespot [2]: 1
- As: activity against tomato early blight (Alternaria Solani): 1
- Other: Pl, activity against apple powdery mildew (Podosphaera leucotricha): 1
- activity against Pvt (Plasmopara viticola [4]): high activity

Structure (SMILES): COC(=O)N=Nc1cc(C)cc2c1OC(C)C2 (stereo not shown) [Example 33]
- Pvp: direct protectant activity against vine downy mildew (Plasmopara viticola [1]): 1
- Eg: activity against barley powdery mildew [3]: 1
- Other: Pva, antisporulant activity against vine downy mildew (Plasmopara viticola [5]): 1

Structure (SMILES): N#CN=[N+]([O-])c1ccc(C(=O)O)cc1 [calvatic acid, 4 -(cyano-N,N,O-azoxy) benzoic acid]
- antibacterial activity (bacteria): antibacterial and antifungal activity
- antifungal activity (fungi): antibacterial and antifungal activity

Structure (SMILES): COC(=O)N=Nc1cc(Cl)c(C)c2c1OC(C)C2 (stereo not shown) [Example 35]
- Pvp: direct protectant activity against vine downy mildew (Plasmopara viticola [1]): 1
- Ph: activity against wheat eyespot [2]: 1
- Other: Pva, antisporulant activity against vine downy mildew (Plasmopara viticola [5]): 1

Structure (SMILES): COC(=O)N=[N+]([O-])c1cccc2c1OC(C)(C)C2 [Example 43]
- Bcp: direct protectant activity against vine grey mould (Botrytis cinerea): 1
- Ph: activity against wheat eyespot [2]: 2
- activity against Ph ([2]; secondary screening): high activity
- Eg: activity against barley powdery mildew [3]: 2
- Other: Pl, activity against apple powdery mildew (Podosphaera leucotricha): 1

— patent US5376679A, “Bicyclic or tricyclic biocidal compounds” (Shell Internationale Research Maatschappij B.V., priority 1988, dated 1994)
